The test system of test [1] is anxiété induite par un nouvel environnement. Nature of the test: Behavioural study in rats: locomotion and rearing counts under anxiety induced by a new environment. Format: in vivo, rat. Conditions: for d/r: ratio of slope of déplacements to slope of redressements, specificity of effect on anxiety; for profil d'action: conclusion in words from the behavioural study in the rat. From the text:
La 1-isopropyl- et la l-isobutyl-3,7-diméthylxan- thine ont fait l'objet d'une étude comportementale chez le rat en fonction de l'anxiété induite par un nouvel environnement. Chez le rat, l'anxiété se manifeste par des redressements de celui-ci sur ses deux pattes postérieures, tandis que ses déplacements sont l'expression de l'activité locomotrice.
• - L'induction d'un état d'anxiété s'effectue par confrontation de rats mâles "naïfs" Sprague-Dawley (Iffa-Credo, France), pesant 260 à 300 g avec un nouvel environnement constitué par des cages en Macrolon ^0 (30 x 25 cm) qui se situent dans une chambre insonorisée et climatisée (22°C et 50 % d'humidité relative). • - La détermination du nombre de redressements et de déplacements a lieu de façon automatique à partir de cellules photo-électriques à infrarouge qui n'émettent des impulsions électriques que pour les mouvements francs de l'animal et pas pour les mouvements statiques comme ceux de la tête et de la queue et ceci pour des raisons de reproductibilité. Ces cellules photo-électriques quadrillent les cages à deux niveaux différents de façon à distinguer les redressements des déplacements. Le nombre de redressements et de déplacements est compté par les deux séries de cellules photo-électriques, mémorisé et restitué sur une imprimante selon un programme préétabli. • - On administre oralement par intubation oesophagienne le composé testé en solution, l'administration de référence étant constituée par 6 ml/kg d'eau distillée, et ceci 30 minutes avant de placer les animaux dans les cages. Le nombre de redressements et de déplacements est déterminé durant les 15 minutes qui suivent la mise en cage, par rapport à l'effet engendré par l'administration de référence.
• - Le tableau I ci-après montre l'évolution des effets des substances testées sur le nombre de déplacements et de redressements en fonction des doses administrées exprimé en pourcentage des déplacements et redressements comptés pour l'administration de référence. [formula] • - A partir des données précédentes, on établit les droites de régression pour les déplacements et les redressements selon la méthode décrite par Saubrié, P.J. Pharmacol, (Paris) 2 (1971) 457-472, l'équation de ces droites de régression correspondant à la moyenne exprimée en % des performances des références en fonction produit par 10 du logarithme des doses (on ne considère que les doses ne diminuant pas l'activité motrice de plus de 75 %). • - La comparaison des pentes des droites de régression correspondant aux déplacements et aux redressements est effectuée en portant sur un système d'axes orthonormés en abscisse (d) la valeur de la pente de la droite des déplacements et en ordonnée (r) celle de la pente des redressements. Ces valeurs mettent en évidence la relation effet-dose pour une substance donnée. • - On détermine également le rapport de la pente des déplacements sur celle des redressements qui permet de juger de la spécificité d'effet d'une substance donnée sur l'anxiété.
La détermination de l'effet d'une substance est donnée par sa localisation par rapport à la droite d = r de pente = 1. Les substances situées sur cette droite ont un effet semblable sur les redressements et les déplacements. Les substances pour lesquelles la valeur absolue de la pente des redressements est significativement supérieure à celle des déplacements ont une action spécifique sur l'anxiété.

The test system of test [2] is enflement de l'oreille chez la souris. Nature of the test: Delayed cutaneous hypersensitivity test (oxazolone), inhibition of ear swelling. Format: in vivo. Conditions: for % d'inhibition de l'enflement d'oreille: dose 150 mg/kg de poids corporel, ear thickness 24 h after challenge, relative to control. The method, then:
L'activité immunosuppressante a été comparée à celle du cyclophosphamide, médicament immunosuppressant connu, comme inhibiteur de l'enflement de l'oreille chez la souris en réponse à l'agression antigénique dans un test d'hypersensibilisation cutanée retard à la dose de 150 mg/kg.
Le test a été conduit par exemple comme décrit par G.L. Asherson et W. Ptak dans Immunology 15, 405 (1968). Des souris ont été immunisées par application cutanée abdominale de 0,1 ml d'une solution à 3 % d'oxazolone. 7 jours après la sensibilisation, les animaux ont été provoqués par peinture de la même solution sur la peau de l'oreille. On a administré simultanément soit le composé ci-dessus soit le cyclophosphamide à une partie des animaux, les animaux restants servant de contrôle. 24 heures après l'agression, on a mesuré l'épaisseur de l'oreille. L'activité immunosuppressante exprimée en % de l'inhibition de l'enflement de l'oreille par rapport au contrôle est indiquée ci-après : […]

Experimental findings from patent publication EP0063827A1, “1-Isopropyl- and 1-isobutyl-3,7-dimethyl xanthine as pharmaceutical preparations” (SOCIETE DES PRODUITS NESTLE S.A., priority 1980, dated 1980) are described below.

Turning to `CNC1=Nc2ccc(Cl)cc2C(c2ccccc2)=[N+]([O-])C1` [chlordiazépoxide, reference compound], in test [1], the d/r is less than 1.
For `Cn1cnc2c1c(=O)n(Cn1c(=O)c3c(ncn3C)n(C)c1=O)c(=O)n2C` [di(3,7-diméthylxanthin-1-yl)méthane], in test [2], the “% d'inhibition de l'enflement d'oreille” value came out at 55%. Moreover, in test [2] (result in words), the activité immunosuppressante entry is given as “a montré une activité immunosuppressante”.
`O=P1(N(CCCl)CCCl)NCCCO1` (stereo not drawn) [cyclophosphamide, reference compound]: the “% d'inhibition de l'enflement d'oreille” value in test [2] is recorded as 73%.
With `Cn1c(=O)c2[nH]cnc2n(C)c1=O` [théophylline, reference compound], in test [1], the “profil d'action” value is “psychostimulante et n'a pas d'effet sur l'anxiété” and the d/r is greater than 1.
On to `CC(C)n1c(=O)c2c(ncn2C)n(C)c1=O` [1-isopropyl-3,7-diméthylxanthine], for which the d/r in test [1] is less than 1.
On to `CC(C)Cn1c(=O)c2c(ncn2C)n(C)c1=O` [1-isobutyl-3,7-diméthylxanthine], for which the “profil d'action” value in test [1] is reported as “sédatif non spécifique”; in test [1] (listed as l-isobutyl-3,7-diméthylxanthine), “effet sédatif comparable à celui d'un neuroleptique type”.
